From ChEMBL document CHEMBL1146955, “A novel series of arylsulfonylthiophene-2-carboxamidine inhibitors of the complement component C1s” (Bioorg Med Chem Lett, 2006)

What follows are compounds tested against Trypsin (Homo sapiens, UniProt P07477+P07478+P35030) (assay: Inhibition of trypsin).
Assay type: protein assay

Row | Structure (SMILES) | Ki [nM]
1 | CSc1sc(C(=N)N)cc1S(=O)(=O)c1cc(Br)c2c(c1)ncn2Cc1cc(F)ccc1F | 1400

What follows are compounds tested against Prothrombin (Homo sapiens, UniProt P00734) (assay: Inhibition of thrombin).

Row | Structure (SMILES) | Ki [nM]
2 | CSc1sc(C(=N)N)cc1S(=O)(=O)c1cc(Br)c2c(c1)ncn2Cc1cc(F)ccc1F | > 15000

The compounds below were run against Coagulation factor X (Homo sapiens, UniProt P00742) (assay: Inhibition of F10a).
Chain of Coagulation factor X (P00742 41-179 limits assumed): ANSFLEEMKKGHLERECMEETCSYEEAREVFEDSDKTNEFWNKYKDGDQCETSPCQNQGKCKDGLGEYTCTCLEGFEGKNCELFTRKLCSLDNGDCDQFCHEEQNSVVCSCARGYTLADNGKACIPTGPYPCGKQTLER
Chain of Coagulation factor X (P00742 235-488 limits assumed): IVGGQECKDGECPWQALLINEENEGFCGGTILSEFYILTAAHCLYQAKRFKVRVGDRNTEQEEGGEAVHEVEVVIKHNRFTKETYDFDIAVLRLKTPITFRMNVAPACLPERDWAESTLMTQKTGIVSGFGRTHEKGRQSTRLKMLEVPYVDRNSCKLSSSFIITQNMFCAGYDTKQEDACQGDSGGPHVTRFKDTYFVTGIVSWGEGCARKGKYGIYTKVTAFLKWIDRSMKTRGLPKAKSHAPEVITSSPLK

Row | Structure (SMILES) | Ki [nM]
3 | CSc1sc(C(=N)N)cc1S(=O)(=O)c1cc(Br)c2c(c1)ncn2Cc1cc(F)ccc1F | 11400

Each compound was assayed against Tissue-type plasminogen activator (Homo sapiens, UniProt P00750) (assay: Inhibition of tPA).
Chain of Tissue-type plasminogen activator (P00750 whole entry): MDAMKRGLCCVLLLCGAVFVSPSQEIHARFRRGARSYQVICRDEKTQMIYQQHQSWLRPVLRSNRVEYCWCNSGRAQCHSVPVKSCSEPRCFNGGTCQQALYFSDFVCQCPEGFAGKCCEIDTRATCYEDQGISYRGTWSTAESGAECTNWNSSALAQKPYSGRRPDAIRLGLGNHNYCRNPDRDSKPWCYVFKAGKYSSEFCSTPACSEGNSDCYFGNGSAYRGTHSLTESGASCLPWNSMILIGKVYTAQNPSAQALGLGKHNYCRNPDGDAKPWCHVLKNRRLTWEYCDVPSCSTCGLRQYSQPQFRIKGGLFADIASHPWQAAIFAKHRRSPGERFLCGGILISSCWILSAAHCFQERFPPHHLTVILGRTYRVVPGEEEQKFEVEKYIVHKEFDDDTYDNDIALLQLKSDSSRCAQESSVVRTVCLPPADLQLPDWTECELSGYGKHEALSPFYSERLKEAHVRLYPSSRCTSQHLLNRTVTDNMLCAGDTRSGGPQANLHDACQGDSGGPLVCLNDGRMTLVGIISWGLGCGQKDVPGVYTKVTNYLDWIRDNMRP

Row | Structure (SMILES) | Ki [nM]
4 | CSc1sc(C(=N)N)cc1S(=O)(=O)c1cc(Br)c2c(c1)ncn2Cc1cc(F)ccc1F | > 10000

What follows are compounds tested against Urokinase-type plasminogen activator (Homo sapiens, UniProt P00749) (assay: Inhibition of uPA).

Row | Structure (SMILES) | Ki [nM]
5 | CSc1sc(C(=N)N)cc1S(=O)(=O)c1cc(Br)c2c(c1)ncn2Cc1cc(F)ccc1F | > 10000

Each compound was assayed against T1, Complement C1s subcomponent (Homo sapiens, UniProt P09871) (assay: Inhibition of C1S).
T1 sequence (P09871 whole entry): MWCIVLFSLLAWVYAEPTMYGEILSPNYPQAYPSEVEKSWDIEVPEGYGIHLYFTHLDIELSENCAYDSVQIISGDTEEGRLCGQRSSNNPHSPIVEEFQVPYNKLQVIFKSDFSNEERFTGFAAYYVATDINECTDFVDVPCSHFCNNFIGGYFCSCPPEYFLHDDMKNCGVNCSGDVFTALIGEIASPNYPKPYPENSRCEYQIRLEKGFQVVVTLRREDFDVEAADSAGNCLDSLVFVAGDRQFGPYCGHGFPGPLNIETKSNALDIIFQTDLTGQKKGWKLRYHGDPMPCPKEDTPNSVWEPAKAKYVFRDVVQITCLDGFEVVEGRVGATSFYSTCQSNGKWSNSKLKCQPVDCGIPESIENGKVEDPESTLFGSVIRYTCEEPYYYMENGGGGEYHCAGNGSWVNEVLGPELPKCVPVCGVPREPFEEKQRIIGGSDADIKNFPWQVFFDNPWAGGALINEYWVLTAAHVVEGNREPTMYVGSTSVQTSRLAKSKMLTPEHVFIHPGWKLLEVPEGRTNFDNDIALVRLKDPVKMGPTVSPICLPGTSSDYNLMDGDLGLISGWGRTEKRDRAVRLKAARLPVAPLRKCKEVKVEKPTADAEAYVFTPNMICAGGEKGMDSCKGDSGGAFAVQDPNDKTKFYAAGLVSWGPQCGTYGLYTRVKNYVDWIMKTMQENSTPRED

Row | Structure (SMILES) | Ki [nM]
6 | CSc1sc(C(=N)N)cc1S(=O)(=O)c1cc(Br)c2c(c1)ncn2-c1ccccc1 | 310
7 | CSc1sc(C(=N)N)cc1S(=O)(=O)c1ccc2c(c1)ncn2Cc1ccccc1 | 400
8 | CSc1sc(C(=N)N)cc1S(=O)(=O)c1ccc2ncn(Cc3ccccc3)c2c1 | 420
9 | CSc1sc(C(=N)N)cc1S(=O)(=O)c1cc(Br)c2ncn(-c3ccccc3)c2c1 | 180
10 | CSc1sc(C(=N)N)cc1S(=O)(=O)c1cc(Br)c2c(c1)ncn2[C@H](C)c1ccccc1 | 380
11 | CSc1sc(C(=N)N)cc1S(=O)(=O)c1cc(Cl)c2ncn(Cc3c(F)cccc3F)c2c1 | 100
12 | CSc1sc(C(=N)N)cc1S(=O)(=O)c1ccccc1 | 750
13 | CSc1sc(C(=N)N)cc1S(=O)(=O)c1cc(Br)c2c(c1)ncn2[C@@H](C)c1ccccc1 | 330
14 | CSc1sc(C(=N)N)cc1S(=O)(=O)c1cc(Br)c2ncn(C)c2c1 | 330
15 | CSc1sc(C(=N)N)cc1S(=O)(=O)c1cc(Br)c2nc[nH]c2c1 | 400
16 | CSc1sc(C(=N)N)cc1S(=O)(=O)c1cc(Br)c2ncn(Cc3c(F)cccc3F)c2c1 | 170
17 | CSc1sc(C(=N)N)cc1S(=O)(=O)c1cc(Br)c2c(c1)ncn2Cc1cc(F)ccc1F | 10
18 | CSc1sc(C(=N)N)cc1S(=O)(=O)c1cc(Br)c2c(c1)ncn2CC=C(C)C | 50
19 | CSc1sc(C(=N)N)cc1S(=O)(=O)c1ccccn1 | 2290
20 | CSc1sc(C(=N)N)cc1S(=O)(=O)c1cc(Br)c2c(c1)ncn2Cc1c(Cl)cccc1Cl | 20
21 | CSc1sc(C(=N)N)cc1S(=O)(=O)c1cc(Br)c2c(c1)ncn2Cc1cc([N+](=O)[O-])ccc1F | 30
22 | CSc1sc(C(=N)N)cc1S(=O)(=O)C(C)C | 11000

Row | Structure (SMILES) | Ki [nM]
23 | C=CCn1cnc2c(Br)cc(S(=O)(=O)c3cc(C(=N)N)sc3SC)cc21 | 210
24 | CSc1sc(C(=N)N)cc1S(=O)(=O)c1cc(Br)c2ncn(Cc3ccccc3)c2c1 | 400
25 | CSc1sc(C(=N)N)cc1S(=O)(=O)c1nccn1C | 1880
26 | CSc1sc(C(=N)N)cc1S(=O)(=O)c1cc(Br)c2ncn(CC=C(C)C)c2c1 | 200
27 | CSc1sc(C(=N)N)cc1S(=O)(=O)c1ccc2ccccc2c1 | 410
28 | CSc1sc(C(=N)N)cc1S(=O)(=O)c1cc(Br)c2c(c1)ncn2C | 400
29 | CSc1sc(C(=N)N)cc1S(=O)(=O)c1cc(Br)c2ncn(Cc3cc([N+](=O)[O-])ccc3F)c2c1 | 170
30 | C=CCn1cnc2cc(S(=O)(=O)c3cc(C(=N)N)sc3SC)cc(Br)c21 | 70
31 | CSc1sc(C(=N)N)cc1S(=O)(=O)c1cc(Br)c2c(c1)ncn2Cc1c(F)cccc1F | 40
32 | CSc1sc(C(=N)N)cc1S(=O)(=O)c1cc(Cl)c2c(c1)ncn2Cc1c(F)cccc1F | 100
33 | CSc1sc(C(=N)N)cc1S(=O)(=O)c1ccc2c(c1)ncn2Cc1ccccn1 | 580
34 | CSc1sc(C(=N)N)cc1S(=O)(=O)c1ccoc1C | 1790
35 | CSc1sc(C(=N)N)cc1S(=O)(=O)c1cccs1 | 2240
36 | CSc1sc(C(=N)N)cc1S(=O)(=O)Cc1ccccc1 | 2000
37 | CSc1sc(C(=N)N)cc1S(=O)(=O)c1cc(Br)c2ncn(Cc3c(Cl)cccc3Cl)c2c1 | 160
38 | CSc1sc(C(=N)N)cc1S(=O)(=O)c1cc(Br)c2ncn(Cc3cc(F)ccc3F)c2c1 | 240
39 | CSc1sc(C(=N)N)cc1S(=O)(=O)c1cc(Br)c2c(c1)ncn2Cc1ccccc1 | 30

Each compound was assayed against Plasminogen (Homo sapiens, UniProt P00747) (assay: Inhibition of plasmin).
Chain of Plasminogen (P00747 97-580 limits assumed): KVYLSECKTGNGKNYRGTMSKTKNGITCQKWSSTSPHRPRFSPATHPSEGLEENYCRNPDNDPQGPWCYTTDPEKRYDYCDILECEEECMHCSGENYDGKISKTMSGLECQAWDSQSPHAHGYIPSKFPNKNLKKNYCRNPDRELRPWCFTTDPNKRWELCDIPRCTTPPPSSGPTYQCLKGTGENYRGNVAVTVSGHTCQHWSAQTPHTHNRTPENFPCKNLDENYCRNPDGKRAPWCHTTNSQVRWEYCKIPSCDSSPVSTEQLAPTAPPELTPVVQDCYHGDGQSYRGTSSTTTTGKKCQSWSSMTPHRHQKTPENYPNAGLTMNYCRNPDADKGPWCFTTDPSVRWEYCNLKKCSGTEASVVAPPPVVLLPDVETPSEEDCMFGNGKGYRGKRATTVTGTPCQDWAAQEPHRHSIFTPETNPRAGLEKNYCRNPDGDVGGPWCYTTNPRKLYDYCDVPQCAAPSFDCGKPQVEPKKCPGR
Chain of Plasminogen (P00747 581-810 limits assumed): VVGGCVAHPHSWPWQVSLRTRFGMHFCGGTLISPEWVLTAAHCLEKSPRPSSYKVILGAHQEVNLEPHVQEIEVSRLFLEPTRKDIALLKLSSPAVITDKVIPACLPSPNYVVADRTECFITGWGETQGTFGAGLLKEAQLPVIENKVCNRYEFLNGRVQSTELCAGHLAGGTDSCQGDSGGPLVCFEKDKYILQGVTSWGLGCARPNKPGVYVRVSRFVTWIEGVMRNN

Row | Structure (SMILES) | Ki [nM]
40 | CSc1sc(C(=N)N)cc1S(=O)(=O)c1cc(Br)c2c(c1)ncn2Cc1cc(F)ccc1F | > 13000
